Test results: patent US11970440B1, “8-(3-chlorobenzylideneamino)naphthalene-1,3-disulfonic acid as an antioxidant compound” (KING FAISAL UNIVERSITY, priority 2023, dated 2024)

Experiment: DPPH (2,2-diphenyl-1-picrylhydrazyl) radical scavenging antioxidant test in vitro
Format: biochemical
Conditions: 517 nm; for Inhibition (radical scavenging inhibition): 0.2 mL DPPH (0.75 mM), compound 3 μM in ethanol, 30 min incubation in the dark
Protocol: The antioxidant properties of the 8-(3-chlorobenzylideneamino)naphthalene-1,3-disulfonic acid were studied by adding 0.2 mL DPPH (0.75 mM)) to compound 8-(3-chlorobenzylideneamino)naphthalene-1,3-disulfonic acid (III) (3 μM) in ethanol. After 30 min of incubation in the dark, the absorbance was read against a blank at 517 nm. Ascorbic acid (vitamin C) was used as standard antioxidants (positive control). A blank sample was prepared by 0.2 ml of DPPH in 3 ml ethanol. A negative control sample was run using ethanol instead of the sample. The radical scavenging inhibition was calculated using the following equation: […]
The antioxidant activity for the synthesized compound is listed in Table 1, using Vitamin C as a reference.

Row | Structure (SMILES) | Inhibition (radical scavenging inhibition) | antioxidant potential in DPPH test, in words (DPPH in vitro test, vitamin C as positive control)
1 | O=S(=O)(O)c1cc(S(=O)(=O)O)c2c(/N=C/c3cccc(Cl)c3)cccc2c1 [Product III, 8-(3-chlorobenzylideneamino)naphthalene-1,3-disulfonic acid] | 50% | high potential as an antioxidant compared to vitamin C
2 | O=C1O[C@H]([C@@H](O)CO)C(O)=C1O [vit c, Ascorbic acid, reference compound] | 74% | –
